# Assay results as given in US20260027096A1, “PHD INHIBITORS” (Oxford University Innovation Limited, priority 2023, published 2026).
# Key:
# [1] = system: iMLL-AF9 AML cells; experiment: RNA-seq analysis of iMLL-AF9 AML cells; type: cell-based, mouse
# Procedure: Total RNA was extracted from 500,000 leukaemic cells using RNeasy Plus Universal Mini Kit (QIAGEN, Cat. No. 73404) following the manufacture's protocol. The RNA integrity number (RIN) was determined by High Sensitivity RNA Screen Tape analysis (Agilent, Cat. No. 5067) and all RIN was >8. High sensitivity Libraries for RNA-seq were prepared from 500 ng of total RNA using the NEBNext® Ultra™ II Directional RNA Library Prep Kit for Illumina® (NEB, Cat. No. E7760) with NEBNext Poly(A) mRNA Magnetic Isolation Module (NEB, Cat. No. E7490) following the manufacture's protocol. Nine cycles of PCR were performed to amplify libraries and the pooled library was sequenced on illumina NextSeq 500 with 85 bp single-end mode at EMBL GeneCore facility.
# For analysis of differentially expressed genes, adapters were trimmed with cutadapt (version 1.18) using options: -a […]-m 50, and processed reads were mapped to GRCm38 genome_tran (release 84) with HISAT2 (version 2.2.1 (Nature Methods volume 12, pages 357-360 (2015), https://www.nature.com/nmeth)) using following option: —qc-filter. Mapped reads per gene were counted with htseq-count (HTSeq version 2.0.1 (Bioinformatics, Volume 38, Issue 10, 15 May 2022, Pages 2943-2945)) providing GTF file and differentially expressed genes were analysed using DESeq2 (version 1.30.1). […]
# [2] = system: MV411 AML cells in NBSGW recipient mice; experiment: MV411 xenotransplantation in NBSGW mice, combination with Venetoclax; type: in vivo, mouse; settings: 14 days treatment; IOX5 i.p. twice daily, Venetoclax o.g. once daily
# Procedure: 14 days following transplantation, recipient mice were treated with IOX5 (68, example 46), Venetoclax or vehicle control. Dosing regimen consisted of 2× daily via i.p. injection (IOX5 (68, example 46) or vehicle) and/or 1× daily via o.g. (Venetoclax or vehicle). […] (E-G) Percentage of human CD45+CD33+CD14+ cells in the BM, spleen and liver, respectively (n=5). (H) Survival curve of mice treated with IOX5 (68, example 46), Venetoclax, IOX5 (68, example 46)+Venetoclax or vehicle control (n=6-7). (I-J) Proliferation and Annexin-V+DAPI+analyses, respectively, of THP-1 cells treated with Ven, IOX5, FIH inhibitor (FIHi; DM-NOFD), IOX5 (68, example 46)+FIHi, IOX5 (68, example 46)+Ven, FIHi+Ven, IOX5 (68, example 46)+FIHi+Ven or vehicle control (n=6). Statistical significance represented as in (A-B). Data represent mean±SEM; *p<0.05; ** p<0.01; *** p<0.001; **** p<0.0001.
# 100,000 THP-1 cells, 100,000 OCI-AM3 cells or 100,000 MV411 cells (for combination experiments) were tail vein injected into non-irradiated 10-to 12-week-old mixed gender NBSGW mice and began drug treatment 14 days after transplantation. […] Mice were culled 5 weeks after transplantation.
# Mice in combination treatment experiments with Venetoclax (ABT-199) (MCE) were dosed once daily with 100 mg/kg via oral gavage (o.g.).
# Further to findings in Example 170, the efficacy of IOX5 (68, example 46)+Venetoclax combination in vivo was investigated (FIG. 38D). MV411 AML cells were engrafted (with MLL-AF4 and FLT3-ITD mutation) and the recipient mice were treated with a vehicle, IOX5 (68, example 46), Venetoclax, and a combination of IOX5 (68, example 46)+Venetoclax.
# [3] = system: OCI-AML3 cells in NBSGW recipient mice; experiment: OCI-AML3 xenotransplantation in NBSGW mice; type: in vivo, mouse; settings: i.p. twice daily for 21 days
# From the text: (A) 100,000 THP-1 cells were transplanted into NBSGW recipient mice. […] (B-C) Percentage of human CD45+CD33+ and human CD45+CD14+ cells in the BM and spleen, respectively (n=4-5). (D) 100,000 OCI-AML3 cells were transplanted into NBSGW recipient mice. […] (E) Percentage of human CD45+CD33+CD14+ cells in the liver, BM and PB, respectively (n=3-7). (F) 2,000 LSK cells from iMLL-AF9;Control mice were sorted and transplanted into irradiated recipient mice. […] (H) LDA in secondary recipients transplanted with indicated doses of CD45.2+BM cells from primary recipients (n=9-10 per dose). (I) Plot showing Poisson statistical analysis. Circles represent the percentages of negative mice for each cell dose, triangles represent any data values with zero negative responses. Solid lines indicate the best-fit linear model, and dotted lines represent 95% CIs. LSC frequencies were calculated using the ELDA software 121. (J) Steady-state analyses of 8-to 10-week-old C57B16 mice treated with IOX5 or vehicle control 2× daily via i.p. injection for 14 days (n=5-7). (K) PB counts (n=6). (L) Total BM cellularity (n=5-9). (M) Total numbers of HSC, MPP, HPC-1 and HPC-2 populations (n=5-7). Data represent mean±SEM; * p<0.05; ** p<0.01; *** p<0.001; **** p<0.0001. […]
smiles,measurement,setting,value
O=C(NCC1CCC(C(F)(F)F)CC1)c1c[nH]c(-n2cccn2)cc1=O (centres unmarked) [IOX5],gene set enrichment analysis (GSEA) of deregulated genes,[1]; 50 μM vs control,"significant up-regulation of hypoxia signature, HIF-1 signalling, and activation of HIF-inducible pathways"
same,BNIP3 transcript expression,[1]; murine cells,significantly upregulated
same,leukaemic burden,[2],decreased leukaemic burden
same,survival of recipient mice,[2],extended survival of the recipient mice
same,leukaemic burden,[3],significantly reduced leukaemic burden
